The text below walks through data of publication PMC8308625, “Preclinical Studies in Anti-Trypanosomatidae Drug Development” (Pharmaceuticals, 2021).

The test system of series [1] is T. cruzi. Conditions: read-out: EC50 ± SD T. cruzi, cited from earlier work.
For series [2], the system named is T. brucei. As to the kind of experiment: Growth inhibition of T. brucei bloodstream form trypomastigotes (resazurin). To be noted: for EC50: read-out: EC50 ± SD T. brucei. The format is cell-based, Trypanosoma brucei brucei. As to the method: Compounds were dissolved in dimethylsulfoxide (DMSO).
Series [3] has as its system L. braziliensis. Conditions: read-out: EC50 ± SD L. brazils, cited from earlier work.
Series [4] deals with L. infantum reference strain (MHOM/BR/2002/LPC-RPV). The series can be described thus: Growth inhibition of L. infantum reference strain promastigotes (resazurin). To be noted: for Selectivity Index MΦ/Lin–Ref: EC50 mammalian cell line/EC50 L. infantum reference strain; for Selectivity Index MΦ/Reference: EC50 J774.1 macrophages versus L. infantum reference strain. For orientation: Resazurin is reduced to fluorescent resorufin, in cell work by metabolically active cells.

Series [5] relates to L. amazonensis. The series can be described thus: Growth inhibition of L. amazonensis promastigotes (resazurin). To be noted: for EC50: read-out: EC50 ± SD L. amaz, Table 4, curcuminoids; for Selectivity Index MΦ/L. amaz: EC50 mammalian cell line/EC50 L. amazonensis.
Series [6] has as its system J774.1 murine macrophages. As to the kind of experiment: Nonspecific cytotoxicity in murine macrophages (MTT).
Experimental: (§1) Cell viability was then assessed using the 3-(4,5-dimethylthiazol-2-yl)-2,5-diphenyltetrazolium bromide (MTT) colorimetric assay [1]. […] All assays were performed in triplicate [35].
A short description of series [7]: Liver fraction stability (cytosolic and microsomal fraction of rat hepatocytes, TLC). To be noted: rat hepatocyte cytosolic and microsomal fractions, 37 °C. Type of series: in vitro ADME. As to the method:
For the determination of the stability in the different fractions, (cytosolic and microsomal of rat hepatocytes) the different proteins present in them were used. The fractions were prepared according to the previously reported protocol. […] The final concentration of the molecules in the aqueous medium was 400 µM and prepared from a stock in DMSO of 40 mM. The solutions were homogenized and incubated at 37 °C at 10 min, 30 min, 1 h, 2 h, 3 h and 4 h. (by TLC). For this, it was incubated at 37 °C in a volume of 1 mL: 2.5 µL of 30 mM Magnesium Chloride (MgCl); 2.5 µL of 40 mM Nicotinamide Adenosine Dinucleotide Phosphate (NADP+); 5 µL of 350 mM Glucose 6- Phosphate (Glu6P); 5 µL of Glucose 6- phosphate dehydrogenase (Glu6PD) 50 U/mL, 5 µL of the stock of 40 mM compounds and the volume of the Phosphate Buffer (pH = 7) must be such that cytosolic (CF) and microsomal (MF) fraction FC and FM present a final protein concentration of 0.1 mg/mL. After that, the stability of compounds 796 and 1019 in the cytosolic (FCF) and microsomal (FMF) fraction of rat hepatocytes was evaluated at different times (1–4 h). Thin-layer chromatography of ethyl acetate extracts was conducted to evaluate the presence of decomposition products. The mobile phase used for these TLCs was n-hexane: ethyl acetate (7: 3).

Series [8] deals with L. infantum veterinary isolate (MCAN_UY_2015_gPL8). The series can be described thus: Growth inhibition of L. infantum veterinary isolate promastigotes (resazurin). Conditions: for Selectivity Index MΦ/Veterinary: EC50 J774.1 macrophages versus L. infantum veterinary isolate.
For series [9] the following is noted: mice, 796 150 mg/kg oral, Cyclophosphamide intraperitoneal positive control.
Text: At least two slides of the cell suspension per animal were made. The air-dried slides were stained with Giemsa stain (5% in phosphate buffer, pH 7.4) and examined at 1000× magnification. Small round or oval bodies, the size of which ranged from about 1/5 to 1/20 of the diameter of a polychromatic erythrocyte (PCE), were counted as micronuclei. A total of 1000 PCEs were scored per animal by the same observer for determining the frequencies of micronucleated polychromatic erythrocytes (MNPCEs). […] For statistical analysis, the homogeneity of variances of data was tested by the analysis of variance (ANOVA) test (p < 0.05) using the EpiInfo (3.5.1) software.
Series [10] relates to fibroblasts (NCTC929). The series can be described thus: Cytotoxicity in fibroblasts. Type of series: cell-based. To be noted: read-out: EC50 ± SD Fibroblasts. An excerpt: Table 5 Cytotoxicity and selectivity index of reference drugs and selected molecules. | column: EC50 ± SD (µM) ^a / Fibroblasts
Series [11] in a line: Nonspecific cytotoxicity in murine macrophages (MTT). To be noted: mouse, J774.1 murine macrophages.
Experimental: as §1
On the set-up of series [12]: method as in data provided by the DNDi program, non-published. To be noted: ref data provided by the DNDi program, non-published; cited from earlier work.
Series [13] deals with T. b. brucei. To be noted: ref Veale and Hoppe, 2018; read-out: EC50 T. b. brucei; cited from earlier work.
The mark [14] stands for this setting: Table 4, curcuminoids, ref [14].
Setting [15] is: read-out: EC50 ± SD Lin–Ref, Table 4, curcuminoids, L. infantum reference strain.
The mark [16] stands for this setting: read-out: EC50 ± SD MΦ, murine macrophages, footnote: J774.1 macrophages or differentiated THP-1 monocytes.
[17] abbreviates: read-out: EC50 ± SD Lin–Vet, Table 4, curcuminoids, L. infantum veterinary isolate.
Where [18] appears, read: Table 3, thiazolidene hydrazines, ref [13],[16],[19],[23],[25].
[19] abbreviates: Trypanosoma brucei, Table 3, thiazolidene hydrazines.
Setting [20] is: Leishmania infantum, read-out: EC50 ± SD Lin–Ref.
The mark [21] stands for this setting: Mus musculus, J774.1, read-out: EC50 ± SD MΦ.
[22] abbreviates: Table 3, thiazolidene hydrazines.
[23] abbreviates: read-out: EC50 ± SD Lin–Ref, Table 3, thiazolidene hydrazines, L. infantum reference strain.
Where [24] appears, read: Leishmania infantum, read-out: EC50 L. infantum Reference.
[25] abbreviates: Leishmania infantum, read-out: EC50 L. infantum Veterinary.

Where two headings read alike, the source gives them in different places.

`O=C(C=Cc1ccsc1)C=Cc1ccsc1` [Compound 1387]: the EC50 (usually the concentration at which the effect is half-maximal) in series [1] (setting [14]) is 16 ± 2 µM; in series [2] (Table 4, curcuminoids) it was 0.7 ± 0.1 µM.
Turning to `O=C1C(=Cc2ccccc2)CCCC1=Cc1ccccc1` [Compound 799], the concentration giving a half-maximal response (EC50) in series [1] (setting [14]) is 5 ± 1 µM; in series [3] (setting [14]) it was 4.2 ± 0.9 µM; in series [2] (Table 4, curcuminoids) it was 1.7 ± 0.5 µM; in series [4] (setting [15]) it was less than 0.3 µM; in series [5], 5 ± 1 µM; in [6] (setting [16]), 115 ± 8 µM. In addition, in series [8] (setting [17]), the EC50 was found to be 12 ± 3 µM. The “metabolic stability: time compound detected / degraded” value in series [7] was less than 1 h.
On to `C=CCn1c(-c2ccc(Cl)cc2)cs\c1=N/N=C/C(C)=C/c1ccco1` [Compound 873], for which the EC50 in series [1] (setting [18]) was 0.09 ± 0.02 µM; in [2] (setting [19]) it was 14 ± 3 µM.
Take `O=P1(N(CCCl)CCCl)NCCCO1` (centres unmarked) [Cyclophosphamide, reference compound]: the “Media Mn/Mouse ± SD” value in series [9] was determined as 36 ± 2. In [9] (5000 EPC observed), the “Number EPMn (total polychromatic micronucleated erythrocytes in the 5 assays)” value is recorded as 180.
Consider `O=C1C(=CC=Cc2cccs2)CCC1=CC=Cc1cccs1` [Compound 1018], for which the EC50 in series [1] (setting [14]) is 0.04 ± 0.01 µM; in series [3] (setting [14]), 11 ± 3 µM; in series [2] (Table 4, curcuminoids) it was 15 ± 2 µM; in series [4] (setting [15]), less than 0.3 µM.
With `CC1CS(=O)(=O)CCN1/N=C/c1ccc([N+](=O)[O-])o1` (centres unmarked) [Nifurtimox, reference compound], the EC50 in series [1] (setting [18]) is 7 ± 2 µM; in series [3] (setting [18]), 6 ± 2 µM; in series [4] (setting [20]), 6 ± 1 µM; in series [6] (setting [21]), 200 ± 9 µM; in series [8] (Leishmania infantum, read-out: EC50 ± SD Lin–Vet) it was 10 ± 2 µM. The “Selectivity Index MΦ/Lin–Ref” value in series [4] worked out at 33. Further, in [5], the “Selectivity Index MΦ/L. amaz” value came to 33. In [8] (EC50 mammalian cell line/EC50 L. infantum veterinary isolate), the “Selectivity Index MΦ/Lin–Vet” value was determined as 20.
On to `O=C1C(=CC=Cc2cccs2)CCCC1=CC=Cc1cccs1` [Compound 1245], for which the EC50 is 0.6 ± 0.2 µM in series [1] (setting [14]); 16 ± 1 µM in series [3] (setting [14]); 16 ± 3 µM in series [2] (Table 4, curcuminoids); less than 0.3 µM in series [4] (setting [15]).
Turning to `O=C(NN=CC=Cc1ccco1)c1cnn(-c2ccccc2)c1` [Compound 1366], in series [1] (setting [18]), the EC50 is 12 ± 2 µM.
As for `COc1cc(/C=C/C(=O)CC(=O)/C=C/c2ccc(O)c(OC)c2)ccc1O` [Curcumin, reference compound], the EC50 in series [1] (setting [14]) is 6 ± 1 µM; in [3] (setting [14]), 6 ± 1 µM; in series [2] (Trypanosoma brucei, Table 4, curcuminoids), 8 ± 1 µM; in series [4] (setting [20]), 5 ± 1 µM; in series [6] (setting [21]) it was 10 ± 2 µM. The “Selectivity Index MΦ/Lin–Ref” value in [4] was 2. The “Selectivity Index MΦ/L. amaz” value in series [5] is on record as 2.
`O=C(C=CC=Cc1cccs1)C=CC=Cc1cccs1` [Compound 798]: the concentration giving a half-maximal response (EC50) in [1] (setting [14]) is 13 ± 1 µM; in series [3] (setting [14]), 19 ± 5 µM; in [4] (setting [15]), 3 ± 0.5 µM.
For the compound `CC(C=CC(=O)C=CC(C)=Cc1ccco1)=Cc1ccco1` [Compound 809], the concentration for a half-maximal effect (EC50) in series [1] (setting [14]) was 8 ± 2 µM; in [3] (setting [14]), 6 ± 1 µM; in [4] (setting [15]) it was 3 ± 1 µM; in series [5] it was 16 ± 2 µM; in series [10] it was 543 ± 6 µM; in [6] (setting [16]) it was 33 ± 8 µM. The “trypanosomicidal effect on T. brucei” value in series [2] is “no trypanosomicidal effect”. Besides, in series [8], the “growth inhibitory / trypanosomicidal effect on the L. infantum canine-derived isolate” value is “no trypanosomicidal effect”.
With `O=C1C(=CC=Cc2ccco2)CCC1=CC=Cc1ccco1` [Compound 1223], the EC50 is 5 ± 2 µM in series [1] (setting [14]), 16 ± 4 µM in series [3] (setting [14]), less than 0.3 µM in [4] (setting [15]) and 18 ± 4 µM in [5]. Besides, the “trypanosomicidal effect on T. brucei” value in series [2] is recorded as “no trypanosomicidal effect”. The “growth inhibitory / trypanosomicidal effect on the L. infantum canine-derived isolate” value in [8] is reported as “no trypanosomicidal effect”.
Regarding `C=CCn1c(-c2ccc(Cl)cc2)csc1=NN=Cc1ccsc1` [Compound 877], the EC50 in [1] (setting [18]) is 15 ± 3 µM; in [2] (setting [22]) it was 10 ± 1 µM.
Turning to `O=C(C=CC=Cc1ccccc1)C=CC=Cc1ccccc1` [Compound 797], in [1] (setting [14]), the EC50 is 11 ± 2 µM.
`C=CCNC(=S)NN=CC=Cc1ccc(C)o1` [Compound 263]: the concentration giving a half-maximal response (EC50) was 5 ± 1 µM in series [1] (setting [18]) and less than 0.3 µM in [4] (setting [23]).
Regarding `CNc1nnc(Sc2cnn(-c3ccccc3)c(=O)c2Cl)s1` [MMV688763, 4-Chloro-5-{[5-(methylamino)-1,3,4-thiadiazol-2-yl]sulfanyl}-2-phenyl-2,3-dihydropyridazin-3-one], the “Selectivity Index MΦ/Reference” value in [4] was more than 24. The figures for the EC50 in series [4] (setting [24]) and in series [8] (setting [25]) were 2.1 ± 0.2 µM and 0.9 ± 0.1 µM, respectively. In series [11], this compound registered an EC50 at 48 h of more than 50 µM. Further, in series [12], the “pharmacokinetics” value is “pharmacokinetic problems”. Moreover, the “Selectivity Index MΦ/Veterinary” value in series [8] is given as more than 56.
With `Clc1ccc(-c2csc(N/N=C/C=C/c3ccco3)n2)cc1` [Compound 901], the results for the EC50 in [1] (setting [18]) and in series [2] (setting [19]) were 1.2 ± 0.3 µM and 5 ± 1 µM, respectively.
For `O=C(C=CC=Cc1ccco1)C=CC=Cc1ccco1` [Compound 793], the 50% effective concentration (EC50) in [1] (setting [14]) is 5 ± 0.7 µM; in [2] (Table 4, curcuminoids) it was 17 ± 2 µM; in [4] (setting [15]), less than 0.3 µM.
With `Cc1ccc(S(=O)(=O)NN=CC=Cc2ccco2)cc1` [Compound 1369], the EC50 in series [1] (setting [18]) was 15 ± 5 µM; in series [4] (setting [23]), 8 ± 2 µM.
Consider `O=C1C(=CC=Cc2ccccc2)CCCC1=CC=Cc1ccccc1` [Compound 800], for which the half-maximal effective concentration (EC50) in series [1] (setting [14]) was 14 µM; in [2] (Table 4, curcuminoids), 15 ± 1 µM.
Regarding `O=C(C=Cc1ccco1)C=Cc1ccco1` [Compound 795], the EC50 in [1] (setting [14]) was 24 ± 2 µM; in [3] (setting [14]), 6 ± 2 µM; in [2] (Table 4, curcuminoids), 1.8 ± 0.5 µM; in series [4] (setting [15]), 5 ± 1 µM; in series [5] it was 10 ± 6 µM; in series [10] it was 114 ± 6 µM. The EC50 in series [6] (setting [16]) was 115 ± 2 µM; in series [8] (setting [17]), 10 ± 2 µM. Further, in [7], the “metabolic stability: time compound detected / degraded” value is reported as less than 1 h.
Consider `O=C(C=CC=Cc1ccco1)C=CC=Cc1cccs1` [Compound 1414], for which the EC50 is 12 ± 1 µM in [1] (setting [14]) and 16 µM in [2] (Table 4, curcuminoids).
Consider `CS(=O)(=O)c1ccc(C(=O)N(C[C@H]2CCCO2)c2nc3ccccc3s2)cc1[N+](=O)[O-]` [MMV688761, N-(1,3-Benzothiazol-2-yl)-4-methylsulfonyl-3-nitro-N-[[(2R)-oxolan-2-yl]methyl]benzamide], for which the concentration giving a half-maximal response (EC50) in [13] is 11 µM; in series [4] (setting [24]) it was 4.9 ± 0.1 µM; in series [8] (setting [25]), 3.9 ± 0.3 µM. Further, in series [4], the “Selectivity Index MΦ/Reference” value was more than 10. The compound also displayed a concentration giving a half-maximal response (EC50) at 48 h in series [11] of more than 50 µM. Further, the “Selectivity Index MΦ/Veterinary” value in series [8] is recorded as more than 13.
`C=CCNC(=S)NN=CC(C)=Cc1ccco1` [Compound 909]: the EC50 was 6 ± 1 µM in [1] (setting [18]), 19 ± 1 µM in series [2] (setting [22]) and 10 µM in [4] (setting [23]).
